These results are taken from publication PMC11206297, “Targeting NAD Metabolism: Rational Design, Synthesis and In Vitro Evaluation of NAMPT/PARP1 Dual-Target Inhibitors as Anti-Breast Cancer Agents” (Molecules, 2024).

In data set [1] the target is NAMPT (Homo sapiens, UniProt P43490). Put plainly: NAMPT enzymatic inhibition assay (fluorescence, coupled NMNAT/alcohol dehydrogenase). The data set is classed as biochemical. As to conditions: for inhibition at 0.1 µM / NAMPT Inhibition Rate: duplicate, average, 0.1 μM; for inhibition at 0.1 µM: read-out: NAMPT Inhibition Rate; for IC50: mean ± SD of at least two independent experiments in duplicate.
NAMPT, sequence (P43490 whole entry): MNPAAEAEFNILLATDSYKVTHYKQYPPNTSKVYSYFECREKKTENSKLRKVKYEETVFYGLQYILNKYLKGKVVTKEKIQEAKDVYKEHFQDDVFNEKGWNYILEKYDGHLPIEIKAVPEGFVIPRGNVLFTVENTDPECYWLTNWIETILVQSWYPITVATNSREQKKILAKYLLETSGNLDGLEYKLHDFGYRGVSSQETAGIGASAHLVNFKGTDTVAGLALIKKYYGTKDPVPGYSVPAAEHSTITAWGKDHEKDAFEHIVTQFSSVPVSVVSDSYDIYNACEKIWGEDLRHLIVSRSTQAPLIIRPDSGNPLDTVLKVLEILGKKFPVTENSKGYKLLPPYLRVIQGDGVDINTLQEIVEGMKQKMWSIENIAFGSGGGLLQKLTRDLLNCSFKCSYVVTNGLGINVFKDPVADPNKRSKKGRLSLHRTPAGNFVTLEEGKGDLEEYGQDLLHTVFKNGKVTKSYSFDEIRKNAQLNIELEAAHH

The target in data set [2] is PARP1 (Homo sapiens, UniProt P09874). Put plainly: PARP1 enzymatic inhibition assay (ELISA, chemiluminescence). The class given is biochemical. As to conditions: for IC50: mean ± SD of at least two independent experiments in duplicate; for inhibition at 0.5 µM: duplicate, average, read-out: PARP1 Inhibition Rate.
PARP1, sequence (P09874 whole entry): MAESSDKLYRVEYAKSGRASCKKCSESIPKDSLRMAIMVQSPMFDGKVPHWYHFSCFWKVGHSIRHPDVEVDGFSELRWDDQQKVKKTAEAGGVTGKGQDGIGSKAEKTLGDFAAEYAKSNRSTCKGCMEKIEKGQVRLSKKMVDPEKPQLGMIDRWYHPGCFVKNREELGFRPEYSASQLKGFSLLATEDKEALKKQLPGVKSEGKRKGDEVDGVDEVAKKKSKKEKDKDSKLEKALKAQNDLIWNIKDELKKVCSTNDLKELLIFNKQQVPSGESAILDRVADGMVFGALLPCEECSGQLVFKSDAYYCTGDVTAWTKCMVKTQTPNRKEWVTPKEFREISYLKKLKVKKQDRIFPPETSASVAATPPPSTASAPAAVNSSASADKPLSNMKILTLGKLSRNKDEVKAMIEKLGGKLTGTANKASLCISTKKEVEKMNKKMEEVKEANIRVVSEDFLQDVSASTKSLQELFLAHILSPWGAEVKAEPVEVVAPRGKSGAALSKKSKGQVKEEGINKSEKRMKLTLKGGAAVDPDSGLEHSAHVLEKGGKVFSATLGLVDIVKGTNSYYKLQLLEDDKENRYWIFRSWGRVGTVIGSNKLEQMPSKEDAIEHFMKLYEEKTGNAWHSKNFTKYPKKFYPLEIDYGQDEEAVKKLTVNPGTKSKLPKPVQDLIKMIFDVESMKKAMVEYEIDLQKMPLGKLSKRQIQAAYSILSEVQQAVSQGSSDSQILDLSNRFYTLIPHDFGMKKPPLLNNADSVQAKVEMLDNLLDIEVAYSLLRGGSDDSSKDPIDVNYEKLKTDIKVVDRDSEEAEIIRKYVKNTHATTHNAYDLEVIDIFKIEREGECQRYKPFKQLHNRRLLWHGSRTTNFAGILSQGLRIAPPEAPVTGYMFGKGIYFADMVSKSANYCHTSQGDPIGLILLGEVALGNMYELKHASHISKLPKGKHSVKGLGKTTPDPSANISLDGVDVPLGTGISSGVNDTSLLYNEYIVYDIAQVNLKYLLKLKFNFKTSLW
The test system of data set [3] is MDA-MB-231. As to the kind of experiment: MTT cell viability assay, MDA-MB-231. The data set is classed as cell-based. The settings on record: Homo sapiens, 72 h, mean ± SEM, read-out: Cytotoxicity IC50 MDA-MB-231. As for the experimental part:
(§1) MDA-MB-468, MDA-MB-231, MCF-7, and MCF-10A cell lines were obtained from the National Collection of Authenticated Cell Culture, China. The cells were cultured in DMEM medium supplemented with 10% FBS and 1% penicillin/streptomycin, and maintained at 37 °C in a humidified atmosphere with 5% CO2.
(§2) Cell viability was assessed using the MTT assay. Cells were seeded at a density of 3 × 10^3 cells per well in a 96-well plate and treated with various concentrations (0.05, 0.2, 0.8, 3.2, 6.4, 12.8 µM) of the compounds for 72 h. After incubation, 100 µL of MTT solution (0.5 mg/mL) was added to each well and further incubated for 4 h. The resulting formazan crystals were dissolved in 150 µL of DMSO, and the absorbance was measured at 570 nm using a microplate reader.

Data set [4] deals with MDA-MB-468. Put plainly: MTT cell viability assay, MDA-MB-468. The class given is cell-based. As to conditions: Homo sapiens, 72 h, mean ± SEM, read-out: Cytotoxicity IC50 MDA-MB-468. As for the experimental part:
as §1, §2

The subject of data set [5] is MCF-7. As to the kind of experiment: MTT cell viability assay, MCF-7. The class given is cell-based. As to conditions: Homo sapiens, MCF7, 72 h, mean ± SEM, read-out: Cytotoxicity IC50 MCF-7. How it is done:
as §1, §2

Data set [6] concerns MCF-10A. Put plainly: MTT cell viability assay, MCF-10A normal breast epithelial cells. As to conditions: for viability at 3 µM: Homo sapiens, 72 h, MCF-10A, mean ± SEM, read-out: Cell Survival Rate. The class given is cell-based, human. As for the experimental part: as §1, §2
A short description of data set [7]: MTT cell viability assay, MCF-10A normal breast epithelial cells. The settings on record: human, MCF-10A normal breast epithelial cells; MCF-10A; mean ± SEM; read-out: Cytotoxicity IC50. The class given is cell-based, human. How it is done: as §1, §2
Data set [8] relates to MDA-MB-468 cells. Put plainly: Cellular NAD level determination (NAD+/NADH WST-8 kit). The data set is classed as cell-based. As to conditions: 24 h, 1 μM. As for the experimental part:
According to the manufacturer’s instructions, an NAD^+/NADH Assay kit with WST-8 (Beyotime, China) was used to measure the intracellular NAD level. The cells collected by centrifugation were added to NAD^+/NADH lysis buffer to obtain a cell lysate. After adding […] working solution, the lysate was incubated at 37 °C for 10 min, and then followed by the addition of color-developing solution. The total concentration of NADH and NAD can be measured by detecting the absorbance at 450 nm. To measure the concentration of NADH, the cell lysate was incubated at 60 °C for 30 min before adding […] working solution. Finally, the NAD content is obtained by the subtraction [NAD^+] = [NADH + NAD^+] − [NADH].

The test system of data set [9] is MDA-MB-468 cells. As to the kind of experiment: Western blot of BCL2. The class given is cell-based. As to conditions: 24 h, 1 μM. How it is done:
Cells were then lysed using RIPA buffer supplemented with protease and phosphatase inhibitors. Protein concentrations were determined using the BCA Protein Assay Kit (Thermo Fisher Scientific^TM, Waltham, MA, USA). Equal amounts of protein (20–30 µg) were separated by SDS-polyacrylamide gel electrophoresis and transferred to a polyvinylidene fluoride (PVDF) membrane. The membrane was blocked with 5% milk in PBS before incubation with primary antibodies. Primary antibodies against γ-H2AX (Cell Signaling Technology™, Danvers, MA, USA), BCL2 (Abcam™, Cambridge, UK), and β-actin (Proteintech™, Rosemont, IL, USA) were used. After overnight incubation at 4 °C, membranes were washed and incubated with HRP-conjugated secondary antibodies for 1 h. Protein bands were visualized using ECL reagents (Labgic Technology^TM, Beijing, China).

Data set [10] relates to MDA-MB-468 cells. Put plainly: Wound scratch cell migration assay. The class given is cell-based. The settings on record: 1 μM, up to 48 h. As for the experimental part:
MDA-MB-468 cells were plated in 6-well plates at a density of 5 × 10^5 cells/well and allowed to incubate overnight. A scratch was carefully generated in the cell monolayer using a 10 µL pipette tip. […] Images were acquired at 0, 12, 24, and 48 h time points to monitor and analyze the migration of cells over the specified intervals.

SMILES strings stand for the structures.

`O=C(c1cc(Cc2n[nH]c(=O)c3ccccc23)ccc1F)N1CCN(S(=O)(=O)c2ccc(NC(=S)NCc3cccnc3)cc2)CC1` [DDY01, 1-(4-((4-(2-Fluoro-5-((4-oxo-3,4-dihydrophthalazin-1-yl)methyl)benzoyl)piperazin-1-yl)sulfonyl)phenyl)-3-(pyridin-3-ylmethyl)thiourea] gave a melting point of 189 to 190 °C. Besides, the inhibition at 0.1 µM in [1] was 83%. Besides, the half-inhibitory concentration (IC50) in data set [2] is 0.009 ± 0.002 µM. In data set [2] (ratio of IC50 values), the “fold decrease in inhibitory capacity against PARP1 compared to Olaparib” value turned out to be 4.5 fold. The IC50 in data set [3] turned out to be 6.17 ± 0.27 µM. Further, the IC50 in [4] is 5.09 ± 0.09 µM. For the same compound, the concentration for half-maximal inhibition (IC50) in [5] is 8.48 ± 0.18 µM. Further, the viability at 3 µM in data set [6] was determined as 67.1 ± 1.73%.
In turn, `O=C(NCc1cccnc1)Nc1ccc(S(=O)(=O)N2CCN(C(=O)CCc3nc4ccccc4c(=O)[nH]3)CC2)cc1` [DDY03, 1-(4-((4-(3-(4-Oxo-3,4-dihydroquinazolin-2-yl)propanoyl)piperazin-1-yl)sulfonyl)phenyl)-3-(pyridin-3-ylmethyl)urea] had a melting point of 120 to 121 °C. Besides, the midpoint of inhibition in [1], the IC50, lay at 0.055 ± 0.019 µM. The IC50 in [2] is 0.025 ± 0.007 µM. For the same compound, the IC50 in [3] was determined as 10.9 ± 0.68 µM. For the same compound, the IC50 in [4] was 8.17 ± 0.31 µM. Further, the IC50 in [5] came to 11.2 ± 0.79 µM. Besides, the viability at 3 µM in [6] was 80.7 ± 1.5%.
`NC(=O)c1ccccc1OCc1ccc(F)c(C(=O)N2CCN(S(=O)(=O)c3ccc(NC(=S)NCc4cccnc4)cc3)CC2)c1` [DDY04, 2-((4-Fluoro-3-(4-((4-(3-(pyridin-3-ylmethyl)thioureido)phenyl)sulfonyl)piperazine-1-carbonyl)benzyl)oxy)benzamide] yielded a melting point of 125 to 126 °C. Moreover, in data set [1], the “NAMPT Inhibition Rate” value was 84% and the inhibition at 0.1 µM was 84 to 86%. Moreover, the inhibition at 0.5 µM in data set [2] turned out to be 70%. In addition, the IC50 in data set [3] is 13.5 ± 0.66 µM. Further, the IC50 in data set [4] is 14.1 ± 0.3 µM. Further, in data set [5], the IC50 came out at 13.4 ± 2.41 µM. Moreover, the viability at 3 µM in data set [6] was determined as 98.4 ± 1.74%.
The compound `NC(=O)c1ccccc1OCc1ccc(F)c(C(=O)N2CCN(S(=O)(=O)c3ccc(NC(=O)NCc4cccnc4)cc3)CC2)c1` [DDY05, 2-((4-Fluoro-3-(4-((4-(3-(pyridin-3-ylmethyl)ureido)phenyl)sulfonyl)piperazine-1-carbonyl)benzyl)oxy)benzamide] displayed a melting point of 119 to 120 °C. For the same compound, in data set [1], the “NAMPT Inhibition Rate” value is reported as 86% and the inhibition at 0.1 µM is 84 to 86%. In [3], the half-inhibitory concentration (IC50) came to 10.2 ± 0.29 µM. In addition, in data set [4], the IC50 is 8.02 ± 0.74 µM. In data set [5], the half-maximal inhibitory concentration (IC50) is over 20 µM. Besides, in data set [6], the viability at 3 µM was 88.7 ± 2.41%.
With `NC(=O)c1ccccc1OCc1ccc(F)c(C(=O)N2CCN(S(=O)(=O)Cc3ccc(NC(=O)NCc4cccnc4)cc3)CC2)c1` [DDY06, 2-((4-Fluoro-3-(4-((4-(3-(pyridin-3-ylmethyl)ureido)benzyl)sulfonyl)piperazine-1-carbonyl)benzyl)oxy)benzamide], in [1], the inhibition at 0.1 µM amounted to 48%. Besides, the inhibition at 0.5 µM in data set [2] is 89%. Also, the IC50 in [3] turned out to be 15.4 ± 2.15 µM; in data set [4], 17.2 ± 1.57 µM; in [5], 7.95 ± 0.34 µM. Besides, the viability at 3 µM in [6] stood at 69.5 ± 2.56%.
The compound `NC(=O)c1cc(F)ccc1OCc1ccc(F)c(C(=O)N2CCN(S(=O)(=O)c3ccc(NC(=O)NCc4cccnc4)cc3)CC2)c1` [DDY07, 5-Fluoro-2-((4-fluoro-3-(4-((4-(3-(pyridin-3-ylmethyl)ureido)phenyl)sulfonyl)piperazine-1-carbonyl)benzyl)oxy)benzamide] returned a melting point of 122 to 123 °C. Moreover, the inhibition at 0.1 µM in data set [1] turned out to be 84%. Besides, the inhibition at 0.5 µM in data set [2] is 92%. For the same compound, the IC50 in data set [3] was 8.1 ± 0.71 µM. Besides, the IC50 in data set [4] was 7.43 ± 0.23 µM. For the same compound, in data set [5], the IC50 came out at 13.5 ± 0.16 µM. Also, the viability at 3 µM in [6] turned out to be 70.73 ± 0.07%.
`NC(=O)c1ccccc1OCc1cccc(C(=O)N2CCN(S(=O)(=O)c3ccc(NC(=O)NCc4cccnc4)cc3)CC2)c1` [DDY08, 2-((3-(4-((4-(3-(Pyridin-3-ylmethyl)ureido)phenyl)sulfonyl)piperazine-1-carbonyl)benzyl)oxy)benzamide] returned a melting point of 202 to 203 °C. In addition, the inhibition at 0.1 µM in [1] turned out to be 80%. The inhibition at 0.5 µM in [2] is 69%. Further, the IC50 in data set [3] is 11.1 ± 0.19 µM. The IC50 in data set [4] was 12.9 ± 1.69 µM. The IC50 in data set [5] was 9.18 ± 0.44 µM. The viability at 3 µM in data set [6] was 72.6 ± 3.46%.
`NC(=O)c1cc(F)ccc1OCc1cccc(C(=O)N2CCN(S(=O)(=O)c3ccc(NC(=O)NCc4cccnc4)cc3)CC2)c1` [DDY09, 5-Fluoro-2-((3-(4-((4-(3-(pyridin-3-ylmethyl)ureido)phenyl)sulfonyl)piperazine-1-carbonyl)benzyl)oxy)benzamide] came in with a melting point of 147 to 148 °C. The inhibition at 0.1 µM in [1] came out at 86%. Moreover, the inhibition at 0.5 µM in data set [2] was 78%. The IC50 in [3] came out at 8.7 ± 0.24 µM. The IC50 in data set [4] stood at 6.98 ± 0.57 µM. The IC50 in data set [5] is 11 ± 0.82 µM. For the same compound, in data set [6], the viability at 3 µM is 66.9 ± 2.45%.
Compound `NC(=O)c1cccc2[nH]c(C(=O)N3CCN(S(=O)(=O)c4ccc(NC(=S)NCc5cccnc5)cc4)CC3)nc12` [DDY10, 2-(4-((4-(3-(Pyridin-3-ylmethyl)thioureido)phenyl)sulfonyl)piperazine-1-carbonyl)-1H-benzo[d]imidazole-4-carboxamide] displayed a melting point of over 250 °C. For the same compound, the inhibition at 0.1 µM in data set [1] worked out at 7%. The inhibition at 0.5 µM in [2] amounted to 55%. Also, in data set [3], the IC50 stood at 4.45 ± 0.29 µM. Also, the IC50 in data set [4] was found to be 6.74 ± 0.16 µM. In addition, in data set [5], the IC50 was 8.83 ± 0.31 µM. Moreover, the viability at 3 µM in data set [6] was found to be 96.9 ± 1.71%.
For the compound `NC(=O)c1cccc2[nH]c(C(=O)N3CCN(S(=O)(=O)c4ccc(NC(=O)NCc5cccnc5)cc4)CC3)nc12` [DDY11, 2-(4-((4-(3-(Pyridin-3-ylmethyl)ureido)phenyl)sulfonyl)piperazine-1-carbonyl)-1H-benzo[d]imidazole-4-carboxamide], the melting point is over 250 °C. Moreover, in [1], 0.034 ± 0.009 µM corresponded to half-maximal inhibition (IC50). In addition, the IC50 in data set [2] stood at 0.014 ± 0.003 µM. The IC50 in data set [3] came out at 13.8 ± 0.33 µM. For the same compound, the IC50 in data set [4] was determined as 12.2 ± 1.39 µM. In [5], the IC50 came out at 7.39 ± 0.34 µM. Further, the viability at 3 µM in data set [6] was 82.15 ± 0.21%.
In the case of `O=C(c1cc(Cc2n[nH]c(=O)c3ccccc23)ccc1F)N1CCN(C(=O)C2CC2)CC1` [Olaparib, reference compound], the IC50 stood at 6.74 ± 0.08 µM in data set [3], 6.19 ± 0.09 µM in data set [4] and 8.68 ± 0.81 µM in data set [5]. The IC50 at 72 h in data set [7] was determined as 9.61 ± 0.77 µM. The viability at 3 µM in data set [6] was determined as 91.8 ± 1.78%. In addition, the “selectivity of cytotoxic activity between breast cancer cells and normal cells (MCF-10A)” value in data set [6] (comparison of Tables 2 and 3) is “no selectivity”. The “cellular NAD levels” value in [8] is given as “did not alter intracellular NAD levels compared to the control”. Besides, the BCL2 expression entry in [9] is “significantly inhibited the expression of the BCL2 protein”. Also, the “inhibitory effect on cell migration” value in [10] was “most robust inhibitory effect”.
